# Data reported in US7795380B2, “Compositions and methods for nucleic acid delivery” (University of Iowa Research Foundation, priority 2006, dated 2010).
# Where no end group is shown, it is not given here. photolabel = not defined here
# Assays:
# erythrocytes = settings: cited from earlier work
# [1] = stability of the linker peptide by LC/MS; format: physicochemical
# Protocol: To test the hypothesis that the new linker would be stable under normal operating conditions, the linker was first synthesized via solid phase peptide synthesis and then purified by preparative reverse phase HPLC. Characterization and purity of the linker was accomplished through analytical reverse phase HPLC and LC/MS (FIG. 11). The stability of the linker peptide was determined by LC/MS after exposure to a variety of conditions including incubations at room temperature, 37° C., 50° C., and exposure to sunlight.
# However, this is not surprising since PL-L1 peptide is a photoactive compound and should photoactivate if provided the proper stimulus.
substance,measurement,setting,value
H5WYG: cationic peptide from HA-2 with His in place of Glu (GGLFHAIAAHFIHGGWHGLIHGWWG),hemolysis activity,erythrocytes; pH 6.4,full hemolytic activity
JTS-1: amphipathic acidic fusogenic peptide developed by Gottschalk and coworkers (GGLFEALLELLESLWELLLEA),higher hemolysis activity than INF-7,erythrocytes; pH of 5,8 fold
PL-Tyr-Lys-Lys-Lys (photolabel-YKKK; reading uncertain; also: printed as PL-Tyr-Lys-Lys-Lys) [PL-L1],stability by LC/MS,[1]; exposure to sunlight,moderate degradation
same,stability by LC/MS,"[1]; room temperature, 37° C., 50° C.",stable
